The values below come from US4100276A, “Fusidic acid derivatives” (priority 1975, dated 1978).

Experiment [1] concerns Streptococcus pyogenes Leo EC. Nature of the experiment: In vitro activity, concentration required for 50% inhibition (Table A). The class given is cell-based.
The test system of experiment [2] is Streptococcus sp. Leo EG2. The experiment is described as above. Format: cell-based.
The subject of experiment [3] is Staphylococcus aureus Leo CC178B. Described as above. Format: cell-based. The following applies: for IC50: LEOCC178B, read-out: Concentration required for 50% inhibition (IC50).
Experiment [4] concerns Staph. aureus, Leo CC178H2 (fusidic acid resistant strain). The description is as above. The following applies: Staphylococcus aureus, read-out: Concentration required for 50% inhibition (IC50). The class given is cell-based.
The next experiment concerns Staph. aureus Leo CJ145. The experiment is described as above. The class given is cell-based. The following applies: for IC50: Staphylococcus aureus.
The subject of experiment [5] is Bacteroides fragilis, Leo JA2. Described as above. The class given is cell-based.
The next experiment has as its system Corynebact. acnes Leo FN. The experiment is described as above. Format: cell-based, Corynebacterium acnes. The following applies: for IC50: Cutibacterium acnes.
The test system of the next experiment is Staphylococcus aureus. Nature of the experiment: In vitro effect of combination with dihydro-fusidic acid, viable counts (Example 46). The class given is cell-based. The following applies: tubes a, b 10 μg/ml, tube c 5 + 5 μg/ml. On the procedure:
In vitro-effect of the combination of dihydro-fusidic acid and 3α,11α-dihydroxy-16β-phenylthio-fusida-13(17),24-dien-21- oic acid
To three tubes containing NIH broth was added:
a. The sodium salt of dihydro-fusidic acid (10 μg/ml).
b. The sodium salt of 3α,11α-dihydroxy-16-phenylthiofusida-13(17),24-dien-21-oic acid (10 μg/ml).
c. A mixture of the sodium salts of dihydro-fusidic acid (5 μg/ml) and 3α,11α-dihydroxy-16-phenylthiofusida-13(17),24-dien-21-oic acid (5 μg/ml).
The tubes were inoculated with Staphylococcus aureus to give 5.2 × 10^5 organisms per ml, incubated at 37° C for 96 hours, and the viable counts were determined.
A fourth tube was treated similarly without addition of any of the antibiotics and used as a control: […]

Setting [6] is: Streptococcus pyogenes Leo EC, read-out: Concentration required for 50% inhibition (IC50).
Where [7] appears, read: Streptococcus sp. Leo EG2, read-out: Concentration required for 50% inhibition (IC50).
Where [8] appears, read: Staphylococcus aureus Leo CC178B.
Setting [9] is: LEOCJ145, Staph. aureus Leo CJ145, read-out: Concentration required for 50% inhibition (IC50).
The mark [10] stands for this setting: LEOJA2, Bacteroides fragilis Leo JA2, read-out: Concentration required for 50% inhibition (IC50).
Setting [11] is: Corynebact. acnes Leo FN, read-out: Concentration required for 50% inhibition (IC50).
Where [12] appears, read: Streptococcus pyogenes, read-out: Concentration required for 50% inhibition (IC50), Streptococcus pyogenes Leo EC.
The mark [13] stands for this setting: Streptococcus, read-out: Concentration required for 50% inhibition (IC50), Streptococcus sp. Leo EG2.
Where [14] appears, read: Bacteroides fragilis, LEOJA2, read-out: Concentration required for 50% inhibition (IC50), Bacteroides fragilis Leo JA2.

≈ marks a conversion by molar mass, not a printed value. Counter-ions that a name gives are not always drawn. Like-named read-outs stand apart in the source and are kept apart here.

With `CC(C)=CCCC(C(=O)O)C1=C2C[C@@H](O)[C@H]3[C@@]4(C)CC[C@@H](O)[C@@H](C)[C@@H]4CC[C@]3(C)[C@@]2(C)C[C@@H]1Sc1ccc(Br)cc1` (stereo partly drawn) [Example 2, 3α,11α-dihydroxy-16β--(4'-bromophenylthio)fusida-13(17),24-dien-21-oic acid sodium salt], the IC50 is 0.2 µg/mL in experiment [1] (setting [6]); 0.5 µg/mL in experiment [2] (setting [7]); 6.3 µg/mL in experiment [3] (setting [8]); 10 µg/mL in experiment [4]; 100 µg/mL in the experiment on Staph. aureus Leo CJ145 (setting [9]); 13 µg/mL in experiment [5] (setting [10]). Further, the IC50 with Corynebact. acnes Leo FN (setting [11]) was 0.63 µg/mL.
Turning to `CC(C)CCCC(C(=O)O)C1=C2C[C@@H](O)[C@H]3[C@@]4(C)CC[C@@H](O)[C@@H](C)[C@@H]4CC[C@]3(C)[C@@]2(C)C[C@@H]1Sc1ccccc1` (stereo partly drawn) [Example 8, 3α,11α-Dihydroxy-16β-phenylthiofusida-13(17)-en-21-oic acid, sodium salt], the IC50 is 0.5 µg/mL in experiment [1] (setting [6]); 0.5 µg/mL in experiment [2] (setting [7]); 2 µg/mL in experiment [3] (setting [8]); 2.5 µg/mL in experiment [4]; over 100 µg/mL in experiment [5] (setting [10]); 1.6 µg/mL in the experiment on Corynebact. acnes Leo FN (setting [11]).
On to `CC(C)=CCCC(C(=O)O)C1=C2C[C@@H](O)[C@H]3[C@@]4(C)CC[C@@H](O)[C@@H](C)[C@@H]4CC[C@]3(C)[C@@]2(C)C[C@@H]1SC(C)(C)C` (some centres unmarked) [Example 13], for which the IC50 was 0.63 µg/mL (≈ 1.15 µM) in experiment [1] (setting [6]); 1.6 µg/mL (≈ 2.93 µM) in experiment [2] (setting [7]); 1.6 µg/mL (≈ 2.93 µM) in experiment [3] (setting [8]); 1.6 µg/mL (≈ 2.93 µM) in experiment [4]; 7.9 µg/mL (≈ 14.4 µM) with Staph. aureus Leo CJ145 (setting [9]); 2 µg/mL (≈ 3.66 µM) in experiment [5] (setting [10]). The IC50 in the experiment on Corynebact. acnes Leo FN (setting [11]) was 0.5 µg/mL (≈ 0.914 µM).
Consider `C=CCS[C@H]1C[C@@]2(C)C(=C1C(CCC=C(C)C)C(=O)O)C[C@@H](O)[C@H]1[C@@]3(C)CC[C@@H](O)[C@@H](C)[C@@H]3CC[C@@]12C` (some centres unmarked) [Example 14], for which the IC50 in experiment [1] (setting [6]) stood at 0.32 µg/mL (≈ 0.603 µM); in experiment [2] (setting [7]), 1.6 µg/mL (≈ 3.01 µM); in experiment [3] (setting [8]), 1.6 µg/mL (≈ 3.01 µM); in experiment [4], 1.6 µg/mL (≈ 3.01 µM); in the experiment with Staph. aureus Leo CJ145 (setting [9]), 5 µg/mL (≈ 9.42 µM); in experiment [5] (setting [10]) it was 4 µg/mL (≈ 7.54 µM). The IC50 in the experiment on Corynebact. acnes Leo FN (setting [11]) was 1.6 µg/mL (≈ 3.01 µM).
`CC(C)=CCCC(C(=O)O)C1=C2C[C@@H](O)[C@H]3[C@@]4(C)CC[C@@H](O)[C@@H](C)[C@@H]4CC[C@]3(C)[C@@]2(C)C[C@@H]1SCc1ccco1` (some centres unmarked) [Example 23]: the IC50 is 0.63 µg/mL (≈ 1.1 µM) in experiment [1] (setting [6]); 1.6 µg/mL (≈ 2.8 µM) in experiment [2] (setting [7]); 1.6 µg/mL (≈ 2.8 µM) in experiment [3] (setting [8]); 1.6 µg/mL (≈ 2.8 µM) in experiment [4]; 7.9 µg/mL (≈ 13.8 µM) in the experiment on Staph. aureus Leo CJ145 (setting [9]); 16 µg/mL (≈ 28 µM) in experiment [5] (setting [10]). For the same molecule, in the experiment on Corynebact. acnes Leo FN (setting [11]), the IC50 was found to be 0.79 µg/mL (≈ 1.38 µM).
Take `CC(C)CCCC(C(=O)O)C1=C2C[C@@H](O)[C@H]3[C@@]4(C)CC[C@@H](O)[C@@H](C)[C@@H]4CC[C@]3(C)[C@@]2(C)C[C@@H]1SC(C)C` (stereo partly drawn) [Example 26, 3α,11α-Dihydroxy-16β-isopropylthiofusida-13(17)-en-21-oic acid sodium salt]: the IC50 in experiment [1] (setting [12]) is 0.5 µg/mL; in experiment [2] (setting [13]), 0.5 µg/mL; in experiment [3] (Staphylococcus aureus) it was 1.6 µg/mL; in experiment [4], 1.6 µg/mL; in experiment [5] (setting [14]) it was 20 µg/mL; in the experiment on Corynebact. acnes Leo FN (read-out: Concentration required for 50% inhibition (IC50), Corynebact. acnes Leo FN) it was 0.5 µg/mL.
`CC(C)=CCCC(C(=O)O)C1=C2C[C@@H](O)[C@H]3[C@@]4(C)CC[C@@H](O)[C@@H](C)[C@@H]4CC[C@]3(C)[C@@]2(C)C[C@@H]1SC(C)C` (stereo partly drawn) [Example 27, 3α,11α-Dihydroxy-16β-isopropylthiofusida-13(17), 24-dien-21-oic acid]: the IC50 in experiment [1] (setting [12]) came to 0.63 µg/mL (≈ 1.18 µM); in experiment [2] (setting [13]), 1 µg/mL (≈ 1.88 µM); in experiment [3] (Staphylococcus aureus) it was 1.6 µg/mL (≈ 3 µM); in experiment [4] it was 1.6 µg/mL (≈ 3 µM); in the experiment with Staph. aureus Leo CJ145 (LEOCJ145, read-out: Concentration required for 50% inhibition (IC50), Staph. aureus Leo CJ145), 4 µg/mL (≈ 7.51 µM); in experiment [5] (setting [14]), 10 µg/mL (≈ 18.8 µM). The “Concentration required for 50% inhibition (IC50)” value in the experiment on Corynebact. acnes Leo FN (Corynebact. acnes Leo FN) is 0.63 µg/mL.
`CC(C)=CCCC(C(=O)O)C1=C2C[C@@H](O)[C@H]3[C@@]4(C)CC[C@@H](O)[C@@H](C)[C@@H]4CC[C@]3(C)[C@@]2(C)C[C@@H]1SC(C)C` (stereo partly drawn) [Example 31C, 3α,11α-dihydroxy-16β-isopropylthiofusida-13(17),24-dien-21-oic acid]: the “Concentration required for 50% inhibition (IC50)” value stood at 0.5 µg/mL in experiment [1] (Streptococcus pyogenes Leo EC); 0.63 µg/mL in experiment [2] (Streptococcus sp. Leo EG2); 1.6 µg/mL in experiment [3] (setting [8]); 4.0 µg/mL with Staph. aureus Leo CJ145 (Staph. aureus Leo CJ145); 6.3 µg/mL in experiment [5] (Bacteroides fragilis Leo JA2); 0.63 µg/mL in the experiment with Corynebact. acnes Leo FN (Corynebact. acnes Leo FN).
Take `CC(C)=CCCC(C(=O)O)C1=C2C[C@@H](O)[C@H]3[C@@]4(C)CC[C@@H](O)[C@@H](C)[C@@H]4CC[C@]3(C)[C@@]2(C)C[C@@H]1SC(C)C` (stereo partly drawn) [Example 31D, 3α,11α-dihydroxy-16β-isopropylthiofusida-13(17),24-dien-21-oic acid]: the “Concentration required for 50% inhibition (IC50)” value stood at 0.63 µg/mL in experiment [1] (Streptococcus pyogenes Leo EC); 0.79 µg/mL in experiment [2] (Streptococcus sp. Leo EG2); 1.6 µg/mL in experiment [3] (setting [8]); 5.0 µg/mL with Staph. aureus Leo CJ145 (Staph. aureus Leo CJ145); 1.6 µg/mL in the experiment on Corynebact. acnes Leo FN (Corynebact. acnes Leo FN).
In the case of `CC(=O)O[C@H]1C[C@@]2(C)[C@@H](C[C@@H](O)[C@H]3[C@@]4(C)CC[C@@H](O)[C@@H](C)[C@@H]4CC[C@@]32C)/C1=C(\CCCC(C)C)C(=O)O` [sodium salt of dihydro-fusidic acid, reference compound], in the experiment with Staphylococcus aureus (37° C, inoculum 5.2 × 10^5), the “Viable counts after 6 1/2 hours” value was 3.1 × 10^5 organisms per ml, the “Viable counts after 2 hours” value is recorded as 4.1 × 10^5 organisms per ml and the “Viable counts after 24 hours” value is 6.3 × 10^6 organisms per ml. Also, the “Resistance of surviving organisms to the compound / development of resistance” value with Staphylococcus aureus (96 hours) is “resistant to dihydro-fusidic acid”.
